The nature of the series: Bioavailability: plasma concentration after single oral administration to rats. In kind it is in vivo, male Sprague-Dawley rats. As to conditions: for AUC: 50 mg/Kg po, 3 rats; for Detection of the administered phosphate compound itself in the blood samples / Delivery of parent drug (PL-100, PL-337) by aqueous dosing compared to non-aqueous formulations of PL-100 and PL-337: 50 mg/kg po; for Detection of the administered phosphate compound itself in the blood samples: delivered as aqueous solutions, HPLC-MS of plasma; for Delivery of parent drug (PL-100, PL-337) by aqueous dosing compared to non-aqueous formulations of PL-100 and PL-337: rats. As to the method:
To assess the extent of in vivo cleavage of the phosphate group from the putative compounds, PL-100, PL-462 (based on PL-100), PL-337 and PL-515 (based on PL-337) compounds were administered per os (po) (50 mg/kg) to male Sprague-Dawley rats and their plasma concentration measured at different time intervals post-administration. All test articles (PL-100, PL-462, PL-337 and PL-515) were prepared in different vehicle at the final concentration of 25 mg/mL. The vehicle composition is as follows: (1) 20% ethanol; 50% propylene glycol; 0.05% w/v Tween 20 and water (Mix); (2) PBS buffer (PBS). Test articles were administered to male Sprague-Dawley rats at a single oral dose of 50 mg/kg. Each article was tested in three rats. Blood samples (0.2-0.3 mL) were collected at the post-dose time of 10, 20, 40, 60, 120, 180 and 360 minutes. The harvested blood was centrifuged to isolate plasma. The resulting plasma was separated and stored at −70° C. Plasma samples together with standards and quality control samples were treated to precipitate proteins, then analyzed by HPLC-MS, for the presence of PL-462, PL-100, PL-515 and PL-337.

Setting [1] is: vehicle Mix (20% ethanol; 50% propylene glycol; 0.05% w/v Tween 20 and water).
The mark [2] stands for this setting: vehicle PBS, parent drug (PL-100 or PL-337) detected in plasma after dosing the phosphate compound.

This note sets out measurements from patent US8580995B2, “Lysine-based prodrugs of aspartyl protease inhibitors and processes for their preparation” (priority 2005, dated 2013).

The structures appear in SMILES notation.

`COC(=O)N[C@H](C(=O)NCCCC[C@@H](CO)N(CC(C)C)S(=O)(=O)c1ccc(N)cc1)C(c1ccccc1)c1ccccc1` [PL-100, (1S,5S)-(1-{5-[(4-amino-benzenesulfonyl)-isobutyl-amino]-6-hydroxy-hexylcarbamoyl}-2,2-diphenyl-ethyl)-carbamic acid methyl ester] returned an AUC under setting [1] of 0.675 ± 0.171 μg/hr*ml.
The compound `COC(=O)N[C@H](C(=O)NCCCC[C@@H](CO)N(CC(C)C)S(=O)(=O)c1ccc(N)c(F)c1)C(c1ccccc1)c1ccccc1` [PL-337, (1-{5-[(4-amino-3-fluoro-benzenesulfonyl)-isobutyl-amino]-6-hydroxy-hexylcarbamoyl}-2,2-diphenyl-ethyl)-carbamic acid methyl ester] yielded an AUC under setting [1] of 1.180 ± 0.196 μg/hr*ml.
With `COC(=O)N[C@H](C(=O)NCCCC[C@@H](COP(=O)(O)O)N(CC(C)C)S(=O)(=O)c1ccc(N)c(F)c1)C(c1ccccc1)c1ccccc1` [PL-515, (1S,5S)-(1-{5-[(4-amino-3-fluoro-benzenesulfonyl)-isobutyl-amino]-6-phosphonooxy-hexylcarbamoyl}-2,2-diphenyl-ethyl)-carbamic acid methyl ester], the “Detection of the administered phosphate compound itself in the blood samples” value is “None of the PL-462 and PL-515 compounds, delivered as aqueous solutions, are detected in the blood samples”; the “Delivery of parent drug (PL-100, PL-337) by aqueous dosing compared to non-aqueous formulations of PL-100 and PL-337” value is listed as “equivalent to slightly superior delivery”. Moreover, the AUC under setting [2] was 1.075 ± 0.625 μg/hr*ml.
With `COC(=O)N[C@H](C(=O)NCCCC[C@@H](COP(=O)([O-])[O-])N(CC(C)C)S(=O)(=O)c1ccc(N)cc1)C(c1ccccc1)c1ccccc1.[Na+].[Na+]` [PL-462, (1S,5S)-(1-{5-[(4-amino-benzenesulfonyl)-isobutyl-amino]-6-phosphonooxy-hexylcarbamoyl}-2,2-diphenyl-ethyl)-carbamic acid methyl ester sodium salt], the “Detection of the administered phosphate compound itself in the blood samples” value was “None of the PL-462 and PL-515 compounds, delivered as aqueous solutions, are detected in the blood samples”; the “Delivery of parent drug (PL-100, PL-337) by aqueous dosing compared to non-aqueous formulations of PL-100 and PL-337” value is given as “equivalent to slightly superior delivery”. Under setting [2], the AUC is 0.816 ± 0.295 μg/hr*ml.
